Reference: US20080057047A1, “Use of bacillus amyloliquefaciens PB6 for the prophylaxis or treatment of gastrointestinal and immuno-related diseases” (priority 2005, published 2008)
≈ marks a conversion by molar mass, not a printed value. Read-outs that look alike come from different tables or passages of the source. Numbered stars: 1 amine (or outer) side, 2 acyl side, 3 side chain; on linkers, the order of the positions; unused ones are H or OH. Bridge positions count the residues as written; N and C are the ends. Square brackets hold non-standard residues; d marks the D form. Peptide text beside a SMILES is read from it. X1 = CC(C)CCCCCCCCC[C@H](CC(=O)[*:1])O[*:2]

Columns and labels:
[1] = system: TNBS-induced colitis; assay: TNBS-induced colitis in rats; type: in vivo, Wistar rats; settings: for number of observations of diarrhea recorded / number of animals affected by diarrhea: day 1 to 7
From the text: Two consecutive trials were done. Male Wistar rats were obtained from the National Centre for Laboratory Animal Sciences (Hyderabad, India) (trial 1) or from the Department of Animal Medicine, […], India) (trial 2). […] Upon their arrival at the test facility, the animals were given a complete clinical examination under the supervision of a veterinarian to ensure that they were in good condition. The animals were acclimatized to the study conditions for a period of at least 7 days. Per trial, animals were randomised and allocated to one of the study groups. […] All animals had free access (except for the overnight fasting prior to TNBS administration) to rat pellet feed from the National Institute of Nutrition (NIN, Hyderabad, India) and Aquaguard purified water ad libitum. In both trials the day of induction of colitis was set as day 1. […] The colitis-negative control groups were given saline intrarectally (0.5 ml per animal once) on day 1. […] Except for infliximab, which was injected intravenously^59, all treatments were administered by gavage. Twice daily observations were made for clinical signs and mortality. […] These segments were opened longitudinally. […] Mesalazine (Mesacol®, Sun Pharmaceutical Ind. Ltd, Mumbai, India) tablets were powdered using pestle and mortar and a solution in distilled water was prepared containing 25 mg 5-aminosalicylic acid per ml. […] Remicade® (Infliximab) (Centocor B. V., Leiden, The Netherlands) was first reconstituted with 10 ml water for injection and was further diluted to 2 mg/ml concentration using saline. […] All body weight dependant doses were administered on the basis of the last individual body weight taken. Fresh preparations were made prior to each administration. The preparations were stirred vigorously before each dosing.

[2] = system: Clostridium perfringens; assay: microbe, parasite or virus in culture; type: cell-based
[3] = system: C. perfringens ATCC13124; assay: microbe, parasite or virus in culture; type: cell-based; settings: Clostridium perfringens, ATCC13124, 18 h
[4] = target: T1, cytosolic PLA2 (Homo sapiens, UniProt P47712); settings: known from literature; cited from earlier work
T1 sequence (P47712 1-749): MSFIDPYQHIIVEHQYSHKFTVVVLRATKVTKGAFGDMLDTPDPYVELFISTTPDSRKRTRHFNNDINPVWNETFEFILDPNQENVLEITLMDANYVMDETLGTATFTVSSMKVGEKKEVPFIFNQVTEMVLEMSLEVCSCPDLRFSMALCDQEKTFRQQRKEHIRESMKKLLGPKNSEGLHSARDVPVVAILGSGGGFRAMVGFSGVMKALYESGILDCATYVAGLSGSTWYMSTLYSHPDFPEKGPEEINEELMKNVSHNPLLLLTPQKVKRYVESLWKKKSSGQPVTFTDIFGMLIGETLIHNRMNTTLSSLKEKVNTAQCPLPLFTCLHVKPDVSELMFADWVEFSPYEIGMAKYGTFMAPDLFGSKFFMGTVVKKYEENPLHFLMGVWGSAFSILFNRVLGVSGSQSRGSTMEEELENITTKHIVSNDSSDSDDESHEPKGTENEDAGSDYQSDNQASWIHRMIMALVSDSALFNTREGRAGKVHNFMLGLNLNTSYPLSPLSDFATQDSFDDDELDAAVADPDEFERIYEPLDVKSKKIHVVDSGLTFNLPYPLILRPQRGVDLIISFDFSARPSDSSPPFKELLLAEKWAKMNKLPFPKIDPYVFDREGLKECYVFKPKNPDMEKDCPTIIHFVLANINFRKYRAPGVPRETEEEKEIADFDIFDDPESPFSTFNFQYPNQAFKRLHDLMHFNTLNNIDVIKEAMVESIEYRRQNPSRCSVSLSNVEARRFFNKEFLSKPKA

[5] = system: Clostridium difficile ATCC 9689; assay: Clindamycin-induced CDAD hamster model; type: in vivo, Golden Syrian hamsters; settings: for diarrhea score / Number of animals with diarrhea: vancomycin 50 mg/Kg oral once daily days 2-6; for Number of animals tested positive for C difficile toxins A or B in faeces: vancomycin
[6] = Immune response (phagocytosis) in male broilers; type: in vivo; settings: 100 mg/kg zinc bacitracin
[7] = Trial 1, Day 1 (baseline), mesalazine 250 mg/Kg/day, infliximab 3 mg/Kg single i.v. dose
[8] = Trial 1, Day 1 to 7, mesalazine 250 mg/Kg/day, infliximab 3 mg/Kg single i.v. dose
[9] = Trial 1, Day 4, mesalazine 250 mg/Kg/day, infliximab 3 mg/Kg single i.v. dose
[10] = Trial 1, Day 7, mesalazine 250 mg/Kg/day, infliximab 3 mg/Kg single i.v. dose
[11] = Trial 1, scale 0-5, mesalazine 250 mg/Kg/day, infliximab 3 mg/Kg single i.v. dose
[12] = Trial 1, mesalazine 250 mg/Kg/day, infliximab 3 mg/Kg single i.v. dose
[13] = Trial 2, Day 1 (baseline), PB6 and S. boulardii 1.5 10^8 CFU/Kg 3 times daily, mesalazine 250 mg/Kg/day, infliximab 3 mg/Kg single dose
[14] = Trial 2, Day 1 to 7, doses as for Day 1
[15] = Trial 2, Day 4, doses as for Day 1
[16] = Trial 2, Day 7, doses as for Day 1
[17] = Trial 2, scale 0-5, PB6 and S. boulardii 1.5 10^8 CFU/Kg 3 times daily, mesalazine 250 mg/Kg/day, infliximab 3 mg/Kg single dose
[18] = Trial 2, PB6 and S. boulardii 1.5 10^8 CFU/Kg 3 times daily, mesalazine 250 mg/Kg/day, infliximab 3 mg/Kg single dose
[19] = first trial, mesalazine 250 mg/Kg/day, infliximab 3 mg/Kg single dose
[20] = second trial, PB6 and S. boulardii 3×1.5 10^8 CFU/Kg/day, mesalazine 250 mg/Kg/day, infliximab 3 mg/Kg single dose
[21] = trial 1, one individual rat, infliximab 3 mg/Kg

Row | Compound | Av. Body weight [1, 7] [g] | Av. Body weight gain (%) [1, 8] [%] | Av. Body weight [1, 9] [g] | Av. Body weight [1, 10] [g] | Gross morphology score [1, 11] | Wet weight (g) of a 5 cm colon segment [1, 12] | Av. Body weight [1, 13] [g] | Av. Body weight gain (%) [1, 14] [%] | Av. Body weight [1, 15] [g] | Av. Body weight [1, 16] [g] | Gross morphology score [1, 17] | Wet weight (g) of a 5 cm colon segment [1, 18] [g] | number of observations of diarrhea recorded [1, 19] | number of animals affected by diarrhea [1, 20] | number of observations of diarrhea recorded [1, 20] | further results
1 | Nc1ccc(O)c(C(=O)O)c1 [Mesalazine, 5-aminosalicylic acid] | 181 ± 11 | 8.8 ± 1.4 | 187 ± 10 | 196 ± 10 | 0.8 ± 0.4 | 0.435 ± 0.052 g | 207 ± 12 | −3.3 ± 5.5 | 199 ± 18 | 201 ± 20 | 1.2 ± 0.8 | 0.445 ± 0.145 | 0 | 1 | 12 | –
2 | CC(C)CCCCCCCCC[C@@H]1CC(=O)N[C@@H](CCC(=O)O)C(=O)N[C@@H](CC(C)C)C(=O)N[C@H](CC(C)C)C(=O)N[C@@H](C(C)C)C(=O)N[C@@H](CC(=O)O)C(=O)N[C@H](CC(C)C)C(=O)N[C@@H](CC(C)C)C(=O)O1 [surfactin] (EL[dL]VD[dL]L; linker N-C via X1) | – | – | – | – | – | – | – | – | – | – | – | – | – | – | – | MIC ([2]; read-out: MIC (C. perfringens), 30′ 0.1 N HCl, 37° C.): 10 to 25 µg/mL (≈ 9.65 to 24.1 µM); MIC ([2]; read-out: MIC (C. perfringens), 60′ 0.1 N HCl, 37° C.): 25 to 50 µg/mL (≈ 24.1 to 48.2 µM); MIC ([2]; read-out: MIC (C. perfringens), 90′ 0.1 N HCl, 37° C.): 25 to 50 µg/mL (≈ 24.1 to 48.2 µM); MIC ([2]; read-out: MIC (C. perfringens), No HCL): 1 to 10 µg/mL (≈ 0.965 to 9.65 µM); MIC [3]: 10 to 25 µg/mL (≈ 9.65 to 24.1 µM); inhibition of the activity of cytosolic PLA2 [4]: inhibits
3 | Infliximab: Remicade® (Infliximab), Centocor, standard drug | 180 ± 14 | 1.3 ± 5.4 | 183 ± 7 | 186 ± 6 | 3.0 ± 1.4 | 1.055 ± 0.490‘ g | 208 ± 15 | −5.2 ± 3.4 | 197 ± 14 | 197 ± 13 | 2.0 ± 0.7 | 0.657 ± 0.076 | 8 | 2 | 24 | number of animals affected by diarrhea ([1]; first trial, infliximab 3 mg/Kg single dose): 1; colon segment weight of one rat [1, 21]: 0.402 g; gross morphology score of one rat [1, 21]: 1
4 | CN[C@H](CC(C)C)C(=O)N[C@H]1C(=O)N[C@@H](CC(N)=O)C(=O)N[C@H]2C(=O)N[C@H]3C(=O)N[C@H](C(=O)N[C@H](C(=O)O)c4cc(O)cc(O)c4-c4cc3ccc4O)[C@H](O)c3ccc(c(Cl)c3)Oc3cc2cc(c3O[C@@H]2O[C@H](CO)[C@@H](O)[C@H](O)[C@H]2O[C@H]2C[C@](C)(N)[C@H](O)[C@H](C)O2)Oc2ccc(cc2Cl)[C@H]1O [Vancomycin, vancomycin] | – | – | – | – | – | – | – | – | – | – | – | – | – | – | – | Average body weight ([5]; Day 0 (baseline), CDAD induced, vancomycin 50 mg/Kg): 218.0 ± 4.6 g; diarrhea score ([5]; Day 1): +; Number of animals with diarrhea ([5]; Day 1, 6 animals): 1; Number of animals tested positive for C difficile toxins A or B in faeces ([5]; Day 1, 6 tested): 0; Number of animals with diarrhea ([5]; Day 2): 2; diarrhea score ([5]; Day 2): ++; Number of animals tested positive for C difficile toxins A or B in faeces ([5]; Day 2, 6 tested): 2; Number of animals with diarrhea ([5]; Day 3): 2; diarrhea score ([5]; Day 3): +++; Number of animals tested positive for C difficile toxins A or B in faeces ([5]; Day 7, 4 tested): 1; Survival at end of treatment period ([5]; day 6, vancomycin 50 mg/Kg once daily): 4 out of 6
5 | zinc bacitracin | – | – | – | – | – | – | – | – | – | – | – | – | – | – | – | Phagocytosis [6]: 6.23
